Assay results as given in US20220241409A1, “WATER SOLUBLE ADJUVANT AND COMPOSITION CONTAINING SAME” (Sumitomo Dainippon Pharma Co., Ltd., priority 2019, published 2022).

Tests used:
mouse splenocyte = test: Activation of immune cells, mouse splenocyte cytokine/chemokine production (Test 5); type: cell-based; details: 200 nmol/L, one day, compared with only DMSO
Experimental: Splenocyte was derived from the spleen of a HLA-A*02:01 transgenic mouse, and cryopreserved. Cryopreserved mouse splenocyte was reconstituted, suspended in RPMI 1640 medium with 10% FBS, and seeded on a U-bottom 96 well plate at 4×10^5 cells/well. The compound prepared in Example 3 was added in the presence of 0.1% (v/v) DMSO to the wells at a final concentration of 200 nmol/L. The plate was incubated at 37° C. under an atmosphere of 5% CO2. One day after the incubation, the culture supernatant was collected. The concentration of cytokine and chemokine (GM-CSF, IFNγ, IL-6, IP-10, MCP-1, MIP-1α, MIP-1β, Rantes, and TNFα) which were included in each culture supernatant was measured with Milliplex Mouse Cytokine/Chemokine Magnetic Bead Panel kit and Luminex system in accordance with the manufacturer's protocol.
The results are shown in FIG. 3-A to FIG. 3-I. The white bar indicates the mean number of the concentration of cytokine and chemokine in the culture supernatant from three wells to which only DMSO was added, and the black bar indicates the mean number of the concentration of cytokine and chemokine in the culture supernatant from three wells to which the compound prepared in Example 3 was added. The compound prepared in Example 3 made the yield of cytokine and chemokine higher, compared with the case of only DMSO.

[1] = system: HLA-A*02:01/HLA-DRB1*01:01 transgenic mouse; test: In vivo adjuvant activity, helper T-cell induction with vaccine d, IFNγ ELISPOT (Test 10); details: 3.25 ng per body added to vaccine d versus no compound; twice, one week interval
Experimental: The in vivo adjuvant activity of the compound prepared in Example 3 was evaluated in the following procedure. To a cocktail vaccine comprising Compound SEQ ID No. 1 prepared in Reference example 1 and Peptide SEQ ID No. 4 prepared in Reference example 4 with a preliminarily-emulsified composition (hereinafter, referred to as “vaccine d”) was added the compound prepared in Example 3 to prepare a vaccine. The vaccine was administered to a HLA-A*02:01/HLA-DRB1*01:01 transgenic mouse (C57BL/6CrHLA-A2.1DR1), and the adjuvant activity of the vaccine was evaluated by the method of testing antigen-specific helper T-cell induction. Peptide SEQ ID No. 4 is a helper peptide derived from HLA-DRB1*01:01-restricted WT1 protein.
Specifically, Peptide SEQ ID No. 1 and Peptide SEQ ID No. 4 were dissolved in DMSO, and then diluted with water for injection to concentrations of Peptide SEQ ID No. 1 of 0.9 mg/mL and Peptide SEQ ID No. 4 of 1.8 mg/mL. The diluted peptide solution was mixed and emulsified with an equal volume of a preliminarily-emulsified composition to prepare vaccine d. Vaccine d was injected to mice intradermally at the tail base area in an amount for administering 180 μg of Peptide SEQ ID No. 1 per body and 360 μg of Peptide SEQ ID No. 4 per body. […] Then, after removal of the supernatant from the wells, stained spots on the ELISPOT plate were counted.

[2] = system: MCA-A24/Kb-WT1 tumor cells; test: In vivo suppression of tumor growth by vaccine (Test 15); details: 27th day after transplantation, HLA-A*24:02 transgenic mouse, vaccination 7 days before and after transplantation; versus vehicle (group a); group b p<0.05, group c (100 ng Example 2 per body) p<0.01
Experimental: The HLA-A*24:02 transgenic mouse (C57BL/6CrHLA-A24/Kb) used herein is a mouse expressing a chimeric HLA (HLA-A*2402/Kb) of a human MHC (HLA-A*24:02) and a mouse MHC (H-2Kb) (Int. J. Cancer 2002; 100: 565-570). The mouse can induce […] CTLs with a peptide which can bind to human HLA-A*24:02.
A suspension of 3-methylcholanthrene in corn oil was administered to a HLA-A*24:02 transgenic mouse intradermally at the ventral region. From the tumor generated at the administration site, HLA-A*2402/Kb-expressing tumor cells were obtained. Cell lines established by stably expressing WT1 antigen peptide (SEQ ID No. 2) in the cells (herein, also referred to as MCA-A24/Kb-WT1 tumor cells) were suspended in Hanks' Balanced Salt Solution and intradermally transplanted to the ventral region of HLA-A*24:02 transgenic mouse (5×10^5 cells per mouse). The mice made to receive a vehicle (Group a), a vaccine (Group b), or a vaccine containing the compound prepared in Example 2 (Group c) were classified. Six mice per group were used. […] The tumor size was measured 27 days after the tumor transplantation and the tumor volume was calculated.

SMILES | yield of cytokine and chemokine (GM-CSF, IFNγ, IL-6, IP-10, MCP-1, MIP-1α, MIP-1β, Rantes, TNFα) (mouse splenocyte) | T-cell counts responsive to Peptide SEQ ID No. 4 (helper T-cell) [1] | growth of tumor cells (average tumor volume) [2]
CCCCOc1nc(N)c2[nH]c(=O)n(Cc3ccc(CN(C)CCOCCOCCOCCOCCO)cc3)c2n1 [Example 3, 6-amino-2-butoxy-9-{[4-(16-hydroxy-2-methyl-5,8,11,14-tetraoxa-2-azahexadecan-1-yl)phenyl]methyl}-7,9-dihydro-8H-purin-8-one] | higher | more | 
CCCCOc1nc(N)c2[nH]c(=O)n(Cc3ccc(CN(C)CCOCCOCCOCCOCCO)nc3)c2n1 [Example 2, 6-amino-2-butoxy-9-{[6-(16-hydroxy-2-methyl-5,8,11,14-tetraoxa-2-azahexadecan-1-yl)pyridin-3-yl]methyl}-7,9-dihydro-8H-purin-8-one-trifluoroacetate] |  |  | more potently suppressed
